Assay results reported in ChEMBL document CHEMBL5252664, “Orally Active Forms of DMT, 5-MeO-DMT, and Long-Acting MDMA for the Treatment of Neuropsychiatric Disorders” (ACS Med Chem Lett, 2023).

Experiments:
Assay type in all cases: ADME, organism-based
Details in all cases: in vivo
[1] = AUC (0 to last) in Sprague-Dawley rat at 10 mg/kg, po; design: dose 10 mg/kg, route po
[2] = Cmax in Sprague-Dawley rat at 10 mg/kg, po; design: dose 10 mg/kg, route po
[3] = Half life in Sprague-Dawley rat at 10 mg/kg, po
[4] = Tmax in Sprague-Dawley rat at 10 mg/kg, po

## C[C@H](N)C(=O)n1cc(CCN(C)C)c2ccccc21.Cl.Cl
[1]
  AUC(0-t): 126 ng·h/mL
[2]
  Cmax: 20.2 ng/mL
[3]
  half-life: 4.08 h
[4]
  Tmax: 0.5 h

## COc1ccc2c(c1)c(CCN(C)C)cn2C(=O)CCCC(C)=O
[1]
  AUC(0-t): 362 ng·h/mL
[2]
  Cmax: 106 ng/mL
[3]
  half-life: 2.02 h
[4]
  Tmax: 1 h

## COc1ccc2c(c1)c(CCN(C)C)cn2C(=O)c1ccccc1
[1]
  AUC(0-t): 66.5 ng·h/mL
[2]
  Cmax: 17.7 ng/mL
[3]
  half-life: 10.3 h
[4]
  Tmax: 1 h

## COc1ccc2c(c1)c(CCN(C)C)cn2C(=O)[C@@H](N)C(C)C.Cl.Cl
[1]
  AUC(0-t): 155 ng·h/mL
[2]
  Cmax: 11.1 ng/mL
[3]
  half-life: 5.54 h
[4]
  Tmax: 2 h

## CN(C)CCc1cn(C(=O)CN(C)C(=O)[C@H](N)Cc2ccccc2)c2ccccc12.Cl.Cl
[1]
  AUC(0-t): 7.17 ng·h/mL
[2]
  Cmax: 2.43 ng/mL
[3]
  half-life: 3.31 h
[4]
  Tmax: 0.5 h
